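How tested: cells in 96-well plates exposed to compound for 48 hours at five concentrations. TGI: total growth inhibition.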
Assays:
Experiment in all cases: NCI-60 cell line screen, 48 h
786-0 renal = system: 786-0 renal
A498 renal = system: A498 renal
A549 NSCLC = system: A549 NSCLC
ACHN renal = system: ACHN renal
BT-549 breast = system: BT-549 breast
CAKI-1 renal = system: CAKI-1 renal
CCRF-CEM leukemia = system: CCRF-CEM leukemia
COLO 205 colon = system: COLO 205 colon
DU-145 prostate = system: DU-145 prostate
EKVX NSCLC = system: EKVX NSCLC
HCC-2998 colon = system: HCC-2998 colon
HCT-116 colon = system: HCT-116 colon
HCT-15 colon = system: HCT-15 colon
HL-60(TB) leukemia = system: HL-60(TB) leukemia
HOP-62 NSCLC = system: HOP-62 NSCLC
HOP-92 NSCLC = system: HOP-92 NSCLC
HS 578T breast = system: HS 578T breast
HT29 colon = system: HT29 colon
IGROV1 ovarian = system: IGROV1 ovarian
K-562 leukemia = system: K-562 leukemia
KM12 colon = system: KM12 colon
LOX IMVI melanoma = system: LOX IMVI melanoma
M14 melanoma = system: M14 melanoma
MALME-3M melanoma = system: MALME-3M melanoma
MCF7 breast = system: MCF7 breast
MDA-MB-231 breast = system: MDA-MB-231 breast
MDA-MB-435 = system: MDA-MB-435
MDA-N = system: MDA-N
MOLT-4 leukemia = system: MOLT-4 leukemia
NCI-H226 lung = system: NCI-H226 lung
NCI-H23 lung = system: NCI-H23 lung
NCI-H460 lung = system: NCI-H460 lung
NCI-H522 lung = system: NCI-H522 lung
NCI/ADR-RES ovarian = system: NCI/ADR-RES ovarian
OVCAR-3 ovarian = system: OVCAR-3 ovarian
OVCAR-4 ovarian = system: OVCAR-4 ovarian
OVCAR-5 ovarian = system: OVCAR-5 ovarian
OVCAR-8 ovarian = system: OVCAR-8 ovarian
PC-3 prostate = system: PC-3 prostate
RPMI-8226 leukemia = system: RPMI-8226 leukemia
RXF 393 renal = system: RXF 393 renal
SF-268 CNS = system: SF-268 CNS
SF-295 CNS = system: SF-295 CNS
SF-539 CNS = system: SF-539 CNS
SK-MEL-2 melanoma = system: SK-MEL-2 melanoma
SK-MEL-28 melanoma = system: SK-MEL-28 melanoma
SK-MEL-5 melanoma = system: SK-MEL-5 melanoma
SK-OV-3 ovarian = system: SK-OV-3 ovarian
SN12C renal = system: SN12C renal
SNB-19 CNS = system: SNB-19 CNS
SNB-75 CNS = system: SNB-75 CNS
SR leukemia = system: SR leukemia
SW-620 colon = system: SW-620 colon
T-47D breast = system: T-47D breast
TK-10 renal = system: TK-10 renal
U251 CNS = system: U251 CNS
UACC-257 melanoma = system: UACC-257 melanoma
UACC-62 melanoma = system: UACC-62 melanoma
UO-31 renal = system: UO-31 renal

Measured: TGI

Nc1ccn(CC(O)c2cc3ccccc3[nH]2)c(=O)n1 (centres undefined)
> 100 µM: all assays above

Nc1c(C(=O)O)nnc2cc(Cl)ccc12
not listed: HOP-92 NSCLC | RPMI-8226 leukemia | RXF 393 renal | SK-MEL-28 melanoma
> 100 µM: all other assays above

Source: PubChem BioAssay (NCI)
